Assay results reported in patent publication US10952436B2, “Microbiocidal quinoline (thio)carboxamide derivatives” (SYNGENTA PARTICIPATIONS AG, priority 2017, dated 2021).

Key:
[1] = system: Glomerella lagenarium (Colletotrichum lagenarium); test: Glomerella lagenarium (Colletotrichum lagenarium)/Liquid Culture (Anthracnose); format: cell-based; conditions: Colletotrichum orbiculare; 200 ppm; liquid culture, compared to untreated control, 3-4 days after application; read-out: control of Glomerella lagenarium
Fusarium culmorum [2] = test: whole plant or invertebrate; format: in vivo; conditions: in Triticum aestivum, read-out: control of Fusarium culmorum
[3] = system: Magnaporthe grisea (Pyricularia oryzae); test: whole plant or invertebrate; format: in vivo; conditions: foliar, read-out: control of Magnaporthe grisea
Fusarium culmorum [4] = test: microbe, parasite or virus in culture; format: cell-based; conditions: read-out: control of Fusarium culmorum
[5] = system: Monographella nivalis (Microdochium nivale); test: Monographella nivalis (Microdochium nivale)/Liquid Culture (Foot Rot Cereals); format: cell-based; conditions: 200 ppm, liquid culture, compared to untreated control, 4-5 days after application, read-out: control of Monographella nivalis
[6] = system: Botryotinia fuckeliana (Botrytis cinerea); test: Botryotinia fuckeliana (Botrytis cinerea)/Liquid Culture (Gray Mould); format: cell-based; conditions: 200 ppm, liquid culture, compared to untreated control, 3-4 days after application, read-out: control of Botryotinia fuckeliana
[7] = system: Magnaporthe grisea (Pyricularia oryzae); test: microbe, parasite or virus in culture; format: cell-based; conditions: read-out: control of Magnaporthe grisea
Sclerotinia sclerotiorum = test: Sclerotinia sclerotiorum/Liquid Culture (Cottony Rot); conditions: read-out: control of Sclerotinia sclerotiorum
Method: Mycelia fragments of a newly grown liquid culture of the fungus are directly mixed into nutrient broth (Vogels broth). After placing a (DMSO) solution of test compound into a microtiter plate (96-well format) the nutrient broth containing the fungal material is added. The test plates are incubated at 24° C. and the inhibition of growth is determined photometrically 3-4 days after application.

CC(C)CC(F)(Cc1ccccc1)C(=O)Nc1cnc2c(F)cccc2c1 (stereo not drawn) [Compound E-1, 2-benzyl-2-fluoro-N-(8-fluoro-3-quinolyl)-4-methyl-pentanamide]
inhibition of growth at 200 ppm [1]: ≥ 80% | pest or weed control at 200 ppm (Fusarium culmorum [2]): ≥ 80% | pest or weed control at 200 ppm [3]: ≥ 80% | inhibition of growth at 200 ppm (Fusarium culmorum [4]): ≥ 80% | inhibition of growth at 200 ppm [5]: ≥ 80% | inhibition of growth at 200 ppm [6]: ≥ 80%

C#CCC(C)(Cc1ccccc1)C(=O)Nc1cc2cccc(F)c2nc1C (stereo not drawn) [Compound E-2, 2-benzyl-N-(8-fluoro-2-methyl-3-quinolyl)-2-methyl-pent-4-ynamide]
inhibition of growth at 200 ppm [1]: ≥ 80% | pest or weed control at 200 ppm (Fusarium culmorum [2]): ≥ 80% | pest or weed control at 200 ppm [3]: ≥ 80% | inhibition of growth at 200 ppm (Fusarium culmorum [4]): ≥ 80% | inhibition of growth at 200 ppm [6]: ≥ 80%

C=C(Cl)CC(Cc1ccccc1)C(=O)Nc1cnc2c(F)cccc2c1 (stereo not drawn) [Compound E-6, 2-benzyl-4-chloro-N-(8-fluoro-3-quinolyl)pent-4-enamide]
melting point: 166 to 168 °C | inhibition of growth at 200 ppm [1]: ≥ 80% | pest or weed control at 200 ppm [3]: ≥ 80% | inhibition of growth at 200 ppm (Fusarium culmorum [4]): ≥ 80% | inhibition of growth at 200 ppm [5]: ≥ 80% | inhibition of growth at 200 ppm [6]: ≥ 80%

Cc1nc2c(F)cccc2cc1NC(=O)C(C)(Cc1cccc(F)c1)CC(F)(F)F (stereo not drawn) [Compound E-8, 4,4,4-trifluoro-N-(8-fluoro-2-methyl-3-quinolyl)-2-[(3-fluorophenyl)methyl]-2-methyl-butanamide]
inhibition of growth at 200 ppm [7]: ≥ 80% | inhibition of growth at 200 ppm [1]: ≥ 80% | pest or weed control at 200 ppm (Fusarium culmorum [2]): ≥ 80% | inhibition of growth at 20 ppm (Sclerotinia sclerotiorum): ≥ 80% | pest or weed control at 200 ppm [3]: ≥ 80% | inhibition of growth at 200 ppm (Fusarium culmorum [4]): ≥ 80% | inhibition of growth at 200 ppm [6]: ≥ 80%

Cc1nc2c(F)cccc2cc1NC(=O)C(C)(Cc1cccc(F)c1)CC(C)C (stereo not drawn) [Compound E-10, N-(8-fluoro-2-methyl-3-quinolyl)-2-[(3-fluorophenyl)methyl]-2,4-dimethyl-pentanamide]
inhibition of growth at 200 ppm [7]: ≥ 80% | melting point: 93 to 95 °C | inhibition of growth at 200 ppm [1]: ≥ 80% | pest or weed control at 200 ppm (Fusarium culmorum [2]): ≥ 80% | inhibition of growth at 20 ppm (Sclerotinia sclerotiorum): ≥ 80% | inhibition of growth at 200 ppm (Fusarium culmorum [4]): ≥ 80% | inhibition of growth at 200 ppm [5]: ≥ 80% | inhibition of growth at 200 ppm [6]: ≥ 80%

CC(Cc1ccc(F)cc1)(CC(F)(F)F)C(=O)Nc1cnc2c(F)cccc2c1 (stereo not drawn) [Compound E-18, 4,4,4-trifluoro-2-[(4-fluorophenyl)methyl]-N-(8-fluoro-3-quinolyl)-2-methyl-butanamide]
inhibition of growth at 200 ppm [7]: ≥ 80% | inhibition of growth at 200 ppm [1]: ≥ 80% | inhibition of growth at 20 ppm (Sclerotinia sclerotiorum): ≥ 80% | pest or weed control at 200 ppm [3]: ≥ 80% | inhibition of growth at 200 ppm (Fusarium culmorum [4]): ≥ 80% | inhibition of growth at 200 ppm [5]: ≥ 80% | inhibition of growth at 200 ppm [6]: ≥ 80%

Cc1c(NC(=O)C(Cc2ccccc2)CC(C)C)cnc2c(F)cccc12 (stereo not drawn) [Compound E-19, 2-benzyl-N-(8-fluoro-4-methyl-3-quinolyl)-4-methyl-pentanamide]
inhibition of growth at 200 ppm [7]: ≥ 80% | inhibition of growth at 200 ppm [1]: ≥ 80% | pest or weed control at 200 ppm (Fusarium culmorum [2]): ≥ 80% | inhibition of growth at 20 ppm (Sclerotinia sclerotiorum): ≥ 80% | pest or weed control at 200 ppm [3]: ≥ 80% | inhibition of growth at 200 ppm (Fusarium culmorum [4]): ≥ 80% | inhibition of growth at 200 ppm [6]: ≥ 80%

C#CCC(C)(Cc1ccccc1)C(=O)Nc1cnc2c(F)cccc2c1 (stereo not drawn) [Compound E-26, 2-benzyl-N-(8-fluoro-3-quinolyl)-2-methyl-pent-4-ynamide]
inhibition of growth at 200 ppm [7]: ≥ 80% | melting point: 189 to 191 °C | inhibition of growth at 200 ppm [1]: ≥ 80% | pest or weed control at 200 ppm [3]: ≥ 80% | inhibition of growth at 200 ppm (Fusarium culmorum [4]): ≥ 80% | inhibition of growth at 200 ppm [5]: ≥ 80% | inhibition of growth at 200 ppm [6]: ≥ 80%

CCCCC(C)(Cc1ccccc1)C(=O)Nc1cnc2c(F)cccc2c1 (stereo not drawn) [Compound E-27, 2-benzyl-N-(8-fluoro-3-quinolyl)-2-methyl-hexanamide]
inhibition of growth at 200 ppm [7]: ≥ 80% | melting point: 135 to 137 °C | pest or weed control at 200 ppm [3]: ≥ 80% | inhibition of growth at 200 ppm (Fusarium culmorum [4]): ≥ 80% | inhibition of growth at 200 ppm [5]: ≥ 80% | inhibition of growth at 200 ppm [6]: ≥ 80%

CC#CCC(Cc1ccccc1)C(=O)Nc1cnc2c(F)cccc2c1 (stereo not drawn) [Compound E-29, 2-benzyl-N-(8-fluoro-3-quinolyl)hex-4-ynamide]
inhibition of growth at 200 ppm [7]: ≥ 80% | melting point: 218 to 220 °C | pest or weed control at 200 ppm [3]: ≥ 80% | inhibition of growth at 200 ppm [6]: ≥ 80%

CC#CCC(C)(Cc1ccccc1)C(=O)Nc1cnc2c(F)cccc2c1 (stereo not drawn) [Compound E-30, 2-benzyl-N-(8-fluoro-3-quinolyl)-2-methyl-hex-4-ynamide]
inhibition of growth at 200 ppm [7]: ≥ 80% | melting point: 136 to 138 °C | pest or weed control at 200 ppm [3]: ≥ 80% | inhibition of growth at 200 ppm (Fusarium culmorum [4]): ≥ 80% | inhibition of growth at 200 ppm [5]: ≥ 80% | inhibition of growth at 200 ppm [6]: ≥ 80%

Cc1nc2c(F)cccc2cc1NC(=O)C(Cc1ccccc1)CC(F)(F)F (stereo not drawn) [Compound E-44, 2-benzyl-4,4,4-trifluoro-N-(8-fluoro-2-methyl-3-quinolyl)butanamide]
inhibition of growth at 200 ppm [7]: ≥ 80% | inhibition of growth at 200 ppm [1]: ≥ 80% | pest or weed control at 200 ppm (Fusarium culmorum [2]): ≥ 80% | pest or weed control at 200 ppm [3]: ≥ 80% | inhibition of growth at 200 ppm (Fusarium culmorum [4]): ≥ 80% | inhibition of growth at 200 ppm [6]: ≥ 80%

C=C(C)CC(CC)(Cc1ccccc1)C(=O)Nc1cnc2c(F)cccc2c1 (stereo not drawn) [Compound E-46, 2-benzyl-2-ethyl-N-(8-fluoro-3-quinolyl)-4-methyl-pent-4-enamide]
inhibition of growth at 200 ppm [7]: ≥ 80% | inhibition of growth at 200 ppm [1]: ≥ 80% | pest or weed control at 200 ppm [3]: ≥ 80% | inhibition of growth at 200 ppm (Fusarium culmorum [4]): ≥ 80% | inhibition of growth at 200 ppm [5]: ≥ 80% | inhibition of growth at 200 ppm [6]: ≥ 80%

Cc1nc2c(F)cccc2cc1NC(=O)C(C)(Cc1ccccc1)CC(F)(F)F (stereo not drawn) [Compound E-47, 2-benzyl-4,4,4-trifluoro-N-(8-fluoro-2-methyl-3-quinolyl)-2-methyl-butanamide]
inhibition of growth at 200 ppm [7]: ≥ 80% | melting point: 130 to 132 °C | inhibition of growth at 200 ppm [1]: ≥ 80% | pest or weed control at 200 ppm (Fusarium culmorum [2]): ≥ 80% | inhibition of growth at 20 ppm (Sclerotinia sclerotiorum): ≥ 80% | inhibition of growth at 200 ppm (Fusarium culmorum [4]): ≥ 80% | inhibition of growth at 200 ppm [6]: ≥ 80%

CC(Cc1ccccc1)(CC(F)(F)F)C(=O)Nc1cnc2c(Cl)cccc2c1 (stereo not drawn) [Compound E-51, 2-benzyl-N-(8-chloro-3-quinolyl)-4,4,4-trifluoro-2-methyl-butanamide]
inhibition of growth at 200 ppm [7]: ≥ 80% | melting point: 104 to 106 °C | inhibition of growth at 200 ppm [1]: ≥ 80% | pest or weed control at 200 ppm (Fusarium culmorum [2]): ≥ 80% | inhibition of growth at 20 ppm (Sclerotinia sclerotiorum): ≥ 80% | inhibition of growth at 200 ppm (Fusarium culmorum [4]): ≥ 80% | inhibition of growth at 200 ppm [5]: ≥ 80% | inhibition of growth at 200 ppm [6]: ≥ 80%

C=C(Cl)CC(C)(Cc1ccccc1)C(=O)Nc1cnc2c(F)cccc2c1 (stereo not drawn) [Compound E-53, 2-benzyl-4-chloro-N-(8-fluoro-3-quinolyl)-2-methyl-pent-4-enamide]
inhibition of growth at 200 ppm [7]: ≥ 80% | melting point: 148 to 150 °C | inhibition of growth at 200 ppm [1]: ≥ 80% | pest or weed control at 200 ppm (Fusarium culmorum [2]): ≥ 80% | inhibition of growth at 20 ppm (Sclerotinia sclerotiorum): ≥ 80% | inhibition of growth at 200 ppm (Fusarium culmorum [4]): ≥ 80% | inhibition of growth at 200 ppm [5]: ≥ 80% | inhibition of growth at 200 ppm [6]: ≥ 80%

C=C(C)CC(Cc1ccccc1)C(=O)Nc1cnc2c(F)cccc2c1C (stereo not drawn) [Compound E-93, 2-benzyl-N-(8-fluoro-4-methyl-3-quinolyl)-4-methyl-pent-4-enamide]
melting point: 116 to 118 °C | inhibition of growth at 200 ppm [1]: ≥ 80% | pest or weed control at 200 ppm [3]: ≥ 80% | inhibition of growth at 200 ppm (Fusarium culmorum [4]): ≥ 80% | inhibition of growth at 200 ppm [5]: ≥ 80% | inhibition of growth at 200 ppm [6]: ≥ 80%

Cc1c(NC(=O)[C@@](C)(Cc2ccccc2)CC(C)C)cnc2c(F)cccc12 [Compound F-4, (2R)-2-benzyl-N-(8-fluoro-4-methyl-3-quinolyl)-2,4-dimethyl-pentanamide]
inhibition of growth at 200 ppm [1]: ≥ 80% | pest or weed control at 200 ppm (Fusarium culmorum [2]): ≥ 80% | pest or weed control at 200 ppm [3]: ≥ 80% | inhibition of growth at 200 ppm (Fusarium culmorum [4]): ≥ 80% | inhibition of growth at 200 ppm [6]: ≥ 80%

Cc1c(NC(=O)[C@](C)(Cc2ccccc2)CC(F)(F)F)cnc2c(F)cccc12 [Compound F-13, (2R)-2-benzyl-4,4,4-trifluoro-N-(8-fluoro-4-methyl-3-quinolyl)-2-methyl-butanamide]
inhibition of growth at 200 ppm [7]: ≥ 80% | melting point: 71 to 73 °C | inhibition of growth at 200 ppm [1]: ≥ 80% | pest or weed control at 200 ppm (Fusarium culmorum [2]): ≥ 80% | inhibition of growth at 20 ppm (Sclerotinia sclerotiorum): ≥ 80% | inhibition of growth at 200 ppm (Fusarium culmorum [4]): ≥ 80% | inhibition of growth at 200 ppm [5]: ≥ 80% | inhibition of growth at 200 ppm [6]: ≥ 80%

Cc1c(NC(=O)[C@@](C)(Cc2ccccc2)CC(F)(F)F)cnc2c(F)cccc12 [Compound F-14, (2S)-2-benzyl-4,4,4-trifluoro-N-(8-fluoro-4-methyl-3-quinolyl)-2-methyl-butanamide]
inhibition of growth at 200 ppm [7]: ≥ 80% | melting point: 74 to 76 °C | inhibition of growth at 200 ppm [1]: ≥ 80% | pest or weed control at 200 ppm (Fusarium culmorum [2]): ≥ 80% | inhibition of growth at 20 ppm (Sclerotinia sclerotiorum): ≥ 80% | inhibition of growth at 200 ppm (Fusarium culmorum [4]): ≥ 80% | inhibition of growth at 200 ppm [5]: ≥ 80% | inhibition of growth at 200 ppm [6]: ≥ 80%

C=C(C)C[C@@](C)(Cc1ccccc1)C(=O)Nc1cnc2c(F)cccc2c1 [Compound F-21, (2S)-2-benzyl-N-(8-fluoro-3-quinolyl)-2,4-dimethyl-pent-4-enamide]
melting point: 132 to 135 °C | inhibition of growth at 200 ppm [1]: ≥ 80% | pest or weed control at 200 ppm (Fusarium culmorum [2]): ≥ 80% | pest or weed control at 200 ppm [3]: ≥ 80% | inhibition of growth at 200 ppm (Fusarium culmorum [4]): ≥ 80% | inhibition of growth at 200 ppm [5]: ≥ 80% | inhibition of growth at 200 ppm [6]: ≥ 80%
